In patent publication US20250387329A1 (priority 2022, published 2025):
Converted amounts (≈) assume the structure as drawn.

Columns and labels:
human renal cancer cells = settings: cells derived from a primary tumor or from metastatic tumor tissue; disclosed in WO 2010/040750; cited from earlier work
[1] = Formulation adjustment: solubility in selected buffers plus 0.70% NaCl, pH adjusted twice; settings: pH 7.4, aqueous buffer, thermodynamic from solid
Experimental: Two buffers were selected: NaH2PO4—Na2HPO4 pH 7.4 and Citrate-Na2HPO4 PH 7.4 at 50 mM, each with addition of 0.70% sodium chloride. Adding 0.70% sodium chloride provides a solution close to isotonicity.
Formulations were prepared by weighing 40 mg of Orellanine into a 5 ml vial, adding 2 ml of buffer, stirring the suspension for 1 hour, adjusting the pH to 7.4 with sodium hydroxide (0.2M), stirring the suspension at 400 rpm for 24 hours at room temperature, and adjusting the pH to 7.4 with sodium hydroxide (0.2M). Each suspension was filtered through a 0.2 μm PVDF syringe filter.

[2] = Solubility study with different buffer concentrations at pH 7.4; settings: phosphate buffer, pH 7.4, aqueous buffer, thermodynamic from solid; for solubility thermodynamic at 24 h: Concentration of Orellanine, pH adjusted to 7.4 after 3 hours, stirred 24 hours at room temperature
Experimental: Solubility Study with Different Buffer Concentrations at pH 7.4
The impact of buffer concentration was assessed. Three buffers were used: • Phosphate buffer pH 7.4 at 25 mM-prepared from 0.95 ml of NaH2PO4 (0.1M) and 4.05 ml of Na2HPO4 (0.1M), adjusted to 20 ml with WFI. • Phosphate buffer pH 7.4 at 50 mM-prepared from 19 ml of NaH2PO4 (0.1M) and 81 ml of Na2HPO4 (0.1M), adjusted to 200 ml with WFI. • Phosphate buffer pH 7.4 at 100 mM-prepared from 38 ml NaH2PO4 (0.1M) and 162 ml of Na2HPO4 (0.1M), adjusted to 200 ml with WFI.
(§1) The pH of each buffer was adjusted with a pH meter and sodium hydroxide or hydrochloric acid at 0.2M.
(§2) The suspension was then stirred at 400 rpm for 24 hours at room temperature. Each suspension was filtered through a 0.2 μm PVDF syringe filter.

[3] = Solubility study with different buffer salts at pH 7.4; settings: for solubility thermodynamic at 24 h: pH 7.4, aqueous buffer, thermodynamic from solid
Experimental: Solubility Study with Different Buffer Salts at pH 7.4
Four buffers at pH 7.4 and 50 mM were assessed: • Phosphate buffer pH 7.4 at 50 mM-prepared from 19 ml of NaH2PO4 (0.1M) and 81 ml of Na2HPO4 (0.1M), adjusted to 200 ml with WFI. • Phosphate buffer pH 7.4 at 50 mM-prepared from 28.1 ml of KH2PO4 (0.2M) and 21.9 ml of NaOH (0.2M) adjusted to 200 ml with WFI. • Tris-HCl buffer pH 7.4 at 50 mM-prepared from 54.7 ml of tris(hydroxymethyl)aminomethane (0.1M) and 45.3 ml of hydrochloric acid (0.1M), adjusted to 200 ml with WFI. • Citrate phosphate buffer pH 7.4 at 50 mM-prepared from 2.4 ml of citric acid monohydrate (0.2M) and 47.6 ml of Na2HPO4 (0.2M), adjusted to 200 ml with WFI.
as §1, §2

[4] = Solubility study with different ionic strengths at pH 7.4; settings: phosphate buffer with sodium chloride, pH 7.4, aqueous buffer, thermodynamic from solid, Concentration of Orellanine, stirred 24 hours at room temperature
Experimental: Solubility Study with Different Ionic Strengths at pH 7.4
The ionic strength of the NaH2PO4—Na2HPO4 buffer was adjusted by adding sodium chloride. The ionic strength of the NaH2PO4—Na2HPO4 buffer at 50 mM was estimated at around 130 mM. The proportion of sodium chloride in added to the buffers was 0.41%, 0.98%, and 2.15%.
as §2

[5] = Solubility study with buffer (pH dependent solubility testing); settings: thermodynamic from solid
Experimental: Solubility Study with Buffer (pH Dependent Solubility Testing)
A phase solubility study was performed for different buffers to analyse the effect of pH on the solubility of Orellanine. Four buffers were tested: • Acetate buffer pH 4.5 at 50 mM-prepared from 1.81 g sodium acetate and 14 ml of acetic acid (2N), adjusted up to 11 with water for injection (WFI). • Phosphate buffer pH 5.8 at 50 mM-prepared from 92 ml of NaH2PO4 and 8 ml of Na2HPO4, adjusted to 200 ml with WFI. • Phosphate buffer pH 6.8 at 50 mM-prepared from 51 ml of NaH2PO4 and 49 ml of Na2HPO4, adjusted to 200 ml with WFI. • Phosphate buffer pH 7.4 at 50 mM-prepared from 19 ml of NaH2PO4 and 81 ml of Na2HPO4, adjusted to 200 ml with WFI.
as §1
Each suspension was centrifuged at 5300 rpm for 15 minutes. The supernatant was filtered with a 0.45 μm nylon filter.

SMILES: [O-][n+]1ccc(O)c(O)c1-c1c(O)c(O)cc[n+]1[O-] [Orellanine]
- Killing of human renal cancer cells (human renal cancer cells): killed them with great efficiency
- solubility thermodynamic at 24 h ([1]; citrate phosphate buffer with sodium chloride): 10500 µg/mL
- solubility at 24 h [1]: > 10000 µg/mL
- solubility thermodynamic at 24 h ([1]; phosphate buffer with sodium chloride): 11100 µg/mL
- solubility at 24 h [2]: 3700 to 4900 µg/mL (≈ 14.7 to 19.4 mM)
- solubility thermodynamic at 24 h ([2]; NaH2PO4—Na2HPO4 pH 7.4 25 mM, final pH 7.29, 92 mOsm): 3680 µg/mL (≈ 14.6 mM)
- solubility thermodynamic at 24 h ([2]; NaH2PO4—Na2HPO4 pH 7.4 50 mM, final pH 7.33, 150 mOsm): 4880 µg/mL (≈ 19.4 mM)
- solubility thermodynamic at 24 h ([2]; NaH2PO4—Na2HPO4 pH 7.4 100 mM, final pH 7.30, 242 mOsm): 4910 µg/mL (≈ 19.5 mM)
- Concentration of Orellanine ([3]; NaH2PO4—Na2HPO4 pH 7.4, 50 mM, stirred 24 hours at room temperature, final pH 7.33, 150 mOsm): 4880 µg/mL
- solubility thermodynamic at 24 h ([3]; Tris-HCl buffer): 4590 µg/mL
- solubility thermodynamic at 24 h ([3]; citrate phosphate buffer): 5440 µg/mL
- solubility thermodynamic at 24 h ([3]; phosphate buffer): 4560 µg/mL
- solubility thermodynamic at 24 h ([4]; NaH2PO4—Na2HPO4 pH 7.4 at 50 mM plus 0.41% NaCl, final pH 7.26, 205 mOsm): 5310 µg/mL
- solubility thermodynamic at 24 h ([4]; NaH2PO4—Na2HPO4 pH 7.4 at 50 mM plus 0.98% NaCl, final pH 7.19, 328 mOsm): 5900 µg/mL
- solubility thermodynamic at 24 h ([4]; NaH2PO4—Na2HPO4 pH 7.4 at 50 mM plus 2.15% NaCl, final pH 7.30, 595 mOsm): 6430 µg/mL
- solubility thermodynamic at 24 h ([5]; acetate buffer, pH 4.5, aqueous buffer): 2.4 µg/mL (≈ 0.00952 mM)
- solubility thermodynamic at 24 h ([5]; phosphate buffer, pH 5.8, aqueous buffer): 29.9 µg/mL (≈ 0.119 mM)
- solubility thermodynamic at 24 h ([5]; phosphate buffer, pH 6.8, aqueous buffer): 622 µg/mL (≈ 2.47 mM)
- solubility thermodynamic at 24 h ([5]; phosphate buffer, pH 7.4, aqueous buffer): 1720 µg/mL (≈ 6.8 mM)
